Data reported in patent US20170190671A1, “BIS(ARYL)CATECHOL DERIVATIVES AS HERBICIDES” (E I DU PONT DE NEMOURS AND COMPANY, priority 2014, published 2017).

Legend:
Assay in all cases: Test E preemergence
Type in all cases: in vivo
Settings in all cases: scale 0 to 100
[1] = system: yellow nutsedge (Cyperus esculentus)
Excerpt: (§1) Seeds of plant species selected from corn (Zea mays), soybean (Glycine max), velvetleaf (Abutilon theophrasti), cocklebur (common cocklebur, Xanthium strumarium), lambsquarters (Chenopodium album), wild poinsettia (Euphorbia heterophylla), palmer pigweed (Amaranthus palmeri), waterhemp (common waterhemp, Amaranthus rudis), surinam grass (Brachiaria decumbens), large (Lg) crabgrass (Digitaria sanguinalis), Brazilian crabgrass (Digitaria horizontalis), fall panicum (Panicum dichotomiflorum), giant foxtail (Setaria faberii), green foxtail (Setaria viridis), goosegrass (Eleusine indica), johnsongrass (Sorghum halepense), ragweed (common ragweed, Ambrosia elatior), barnyardgrass (Echinochloa crus-galli), sandbur (southern sandbur, Cenchrus echinatus), arrowleaf sida (Sida rhombifolia), Italian ryegrass (Lolium multiflorum), dayflower (Virginia (VA) dayflower, Commelina virginica), field bindweed (Convolvulus arvensis), morningglory (Ipomoea coccinea), nightshade (eastern black nightshade, Solanum ptycanthum), kochia (Kochia scoparia), yellow nutsedge (Cyperus esculentus), horseweed (Conyza canadensis), and hairy beggarticks (Bidens pilosa), were planted into a silt loam soil and treated preemergence with test chemicals formulated in a non-phytotoxic solvent mixture which included a surfactant.
(§2) At the same time, plants from these crop and weed species and also waterhemp_RES1, (ALS & Triazine resistant common waterhemp, Amaranthus rudis), and waterhemp_RES2, (ALS & HPPD resistant common waterhemp, Amaranthus rudis) were planted in pots containing Redi-Earth® planting medium (Scotts Company, 14111 Scottslawn Road, Marysville, Ohio 43041) comprising spaghnum peat moss, vermiculite, wetting agent and starter nutrients were treated with postemergence applications of test chemicals formulated in the same manner. Plants ranged in height from 2 to 18 cm for postemergence treatments (1- to 4-leaf stage). Treated plants and controls were maintained in a greenhouse for 14 to 21 days, after which time all species were compared to controls and visually evaluated. Plant response ratings, summarized in Table E, are based on a scale of 0 to 100 where 0 is no effect and 100 is complete control. A dash (-) response means no test result.

corn (Zea mays) = system: corn (Zea mays)
Excerpt: as §1, §2

[2] = system: waterhemp (common waterhemp, Amaranthus rudis)
Excerpt: as §1, §2

[3] = system: hairy beggarticks (Bidens pilosa)
Excerpt: as §1, §2

[4] = system: arrowleaf sida (Sida rhombifolia)
Excerpt: as §1, §2

[5] = system: lambsquarters (Chenopodium album)
Excerpt: as §1, §2

[6] = system: Surinam grass (Brachiaria decumbens)
Excerpt: as §1, §2

[7] = system: green foxtail (Setaria viridis)
Excerpt: as §1, §2

[8] = system: ragweed (common ragweed, Ambrosia elatior)
Excerpt: as §1, §2

[9] = system: large (Lg) crabgrass (Digitaria sanguinalis)
Excerpt: as §1, §2

[10] = system: barnyardgrass (Echinochloa crus-galli)
Excerpt: as §1, §2

[11] = system: goosegrass (Eleusine indica)
Excerpt: as §1, §2

[12] = system: field bindweed (Convolvulus arvensis)
Excerpt: as §1, §2

[13] = system: sandbur (southern sandbur, Cenchrus echinatus)
Excerpt: as §1, §2

[14] = system: nightshade (eastern black nightshade, Solanum ptycanthum)
Excerpt: as §1, §2

soybean (Glycine max) = system: soybean (Glycine max)
Excerpt: as §1, §2

[15] = system: velvetleaf (Abutilon theophrasti)
Excerpt: as §1, §2

[16] = system: dayflower (Virginia (VA) dayflower, Commelina virginica)
Excerpt: as §1, §2

[17] = system: morningglory (Ipomoea coccinea)
Excerpt: as §1, §2

[18] = system: giant foxtail (Setaria faberii)
Excerpt: as §1, §2

[19] = system: palmer pigweed (Amaranthus palmeri)
Excerpt: as §1, §2

Q: Which “Plant response rating, Nutsedge, Yellow” value ([1]; 16 g ai/ha) does the source give for `Fc1cccc(Oc2ncc(Cl)cn2)c1Oc1ncc(Cl)cn1` [Compound 21, 2,2′-[[3-fluoro-1,2-phenylene]bis(oxy)]bis[5-chloropyrimidine]] here?
A: Its value is 0.

Q: What about the “Plant response rating, Nutsedge, Yellow” value ([1]; 31 g ai/ha) of the same compound?
A: Its value is 0.

Q: And the “Plant response rating, Nutsedge, Yellow” value ([1]; 62 g ai/ha)?
A: The value was 0.

Q: What about the “Plant response rating, Nutsedge, Yellow” value ([1]; 125 g ai/ha) of the same compound?
A: The value was 15.

Q: And the “Plant response rating, Corn” value (corn (Zea mays); 16 g ai/ha)?
A: The value was 0.

Q: And the “Plant response rating, Corn” value (corn (Zea mays); 31 g ai/ha)?
A: Its value is 0.

Q: What about the “Plant response rating, Corn” value (corn (Zea mays); 62 g ai/ha) of the same compound?
A: The value was 10.

Q: What about the “Plant response rating, Corn” value (corn (Zea mays); 125 g ai/ha) of the same compound?
A: The value was 50.

Q: What about the “Plant response rating, Waterhemp” value ([2]; 16 g ai/ha) of the same compound?
A: The value was 65.

Q: And the “Plant response rating, Waterhemp” value ([2]; 31 g ai/ha)?
A: Its value is 80.

Q: What about the “Plant response rating, Waterhemp” value ([2]; 62 g ai/ha) of the same compound?
A: Its value is 100.

Q: And the “Plant response rating, Waterhemp” value ([2]; 125 g ai/ha)?
A: The value was 100.

Q: And the “Plant response rating, Beggarticks” value ([3]; 16 g ai/ha)?
A: Its value is 0.

Q: And the “Plant response rating, Beggarticks” value ([3]; 31 g ai/ha)?
A: The value was 0.

Q: What about the “Plant response rating, Beggarticks” value ([3]; 62 g ai/ha) of the same compound?
A: Its value is 0.

Q: What about the “Plant response rating, Beggarticks” value ([3]; 125 g ai/ha) of the same compound?
A: The value was 0.

Q: And the “Plant response rating, Arrowleaf Sida” value ([4]; 16 g ai/ha)?
A: The value was 90.

Q: What about the “Plant response rating, Arrowleaf Sida” value ([4]; 31 g ai/ha) of the same compound?
A: The value was 100.

Q: And the “Plant response rating, Arrowleaf Sida” value ([4]; 62 g ai/ha)?
A: Its value is 100.

Q: What about the “Plant response rating, Arrowleaf Sida” value ([4]; 125 g ai/ha) of the same compound?
A: Its value is 100.

Q: And the “Plant response rating, Lambsquarters” value ([5]; 16 g ai/ha)?
A: The value was 0.

Q: What about the “Plant response rating, Lambsquarters” value ([5]; 31 g ai/ha) of the same compound?
A: The value was 40.

Q: What about the “Plant response rating, Lambsquarters” value ([5]; 62 g ai/ha) of the same compound?
A: Its value is 100.

Q: And the “Plant response rating, Lambsquarters” value ([5]; 125 g ai/ha)?
A: Its value is 100.

Q: And the “Plant response rating, Surinam Grass” value ([6]; 16 g ai/ha)?
A: The value was 0.

Q: And the “Plant response rating, Surinam Grass” value ([6]; 31 g ai/ha)?
A: Its value is 10.

Q: And the “Plant response rating, Surinam Grass” value ([6]; 62 g ai/ha)?
A: The value was 0.

Q: What about the “Plant response rating, Surinam Grass” value ([6]; 125 g ai/ha) of the same compound?
A: Its value is 50.

Q: And the “Plant response rating, Foxtail, Green” value ([7]; 16 g ai/ha)?
A: Its value is 15.

Q: And the “Plant response rating, Foxtail, Green” value ([7]; 31 g ai/ha)?
A: The value was 50.

Q: What about the “Plant response rating, Foxtail, Green” value ([7]; 62 g ai/ha) of the same compound?
A: Its value is 70.

Q: What about the “Plant response rating, Foxtail, Green” value ([7]; 125 g ai/ha) of the same compound?
A: Its value is 100.

Q: What about the “Plant response rating, Ragweed” value ([8]; 16 g ai/ha) of the same compound?
A: The value was 0.

Q: And the “Plant response rating, Ragweed” value ([8]; 31 g ai/ha)?
A: The value was 50.

Q: And the “Plant response rating, Ragweed” value ([8]; 62 g ai/ha)?
A: The value was 50.

Q: What about the “Plant response rating, Ragweed” value ([8]; 125 g ai/ha) of the same compound?
A: Its value is 98.

Q: What about the “Plant response rating, Crabgrass, Large” value ([9]; 16 g ai/ha) of the same compound?
A: Its value is 50.

Q: What about the “Plant response rating, Crabgrass, Large” value ([9]; 31 g ai/ha) of the same compound?
A: Its value is 75.

Q: And the “Plant response rating, Crabgrass, Large” value ([9]; 62 g ai/ha)?
A: The value was 95.

Q: What about the “Plant response rating, Crabgrass, Large” value ([9]; 125 g ai/ha) of the same compound?
A: Its value is 100.

Q: What about the “Plant response rating, Barnyardgrass” value ([10]; 16 g ai/ha) of the same compound?
A: Its value is 15.

Q: And the “Plant response rating, Barnyardgrass” value ([10]; 31 g ai/ha)?
A: The value was 20.

Q: What about the “Plant response rating, Barnyardgrass” value ([10]; 62 g ai/ha) of the same compound?
A: Its value is 65.

Q: And the “Plant response rating, Barnyardgrass” value ([10]; 125 g ai/ha)?
A: The value was 100.

Q: And the “Plant response rating, Goosegrass” value ([11]; 16 g ai/ha)?
A: Its value is 10.

Q: What about the “Plant response rating, Goosegrass” value ([11]; 31 g ai/ha) of the same compound?
A: Its value is 50.

Q: What about the “Plant response rating, Goosegrass” value ([11]; 62 g ai/ha) of the same compound?
A: The value was 75.

Q: What about the “Plant response rating, Goosegrass” value ([11]; 125 g ai/ha) of the same compound?
A: The value was 98.

Q: What about the “Plant response rating, Field Bindweed” value ([12]; 16 g ai/ha) of the same compound?
A: Its value is 0.

Q: And the “Plant response rating, Field Bindweed” value ([12]; 31 g ai/ha)?
A: Its value is 0.

Q: What about the “Plant response rating, Field Bindweed” value ([12]; 62 g ai/ha) of the same compound?
A: Its value is 15.

Q: And the “Plant response rating, Field Bindweed” value ([12]; 125 g ai/ha)?
A: Its value is 40.

Q: And the “Plant response rating, Sandbur” value ([13]; 16 g ai/ha)?
A: Its value is 0.

Q: What about the “Plant response rating, Sandbur” value ([13]; 31 g ai/ha) of the same compound?
A: Its value is 0.

Q: What about the “Plant response rating, Sandbur” value ([13]; 62 g ai/ha) of the same compound?
A: The value was 15.

Q: And the “Plant response rating, Sandbur” value ([13]; 125 g ai/ha)?
A: Its value is 50.

Q: And the “Plant response rating, Nightshade” value ([14]; 16 g ai/ha)?
A: The value was 80.

Q: What about the “Plant response rating, Nightshade” value ([14]; 31 g ai/ha) of the same compound?
A: The value was 90.

Q: And the “Plant response rating, Nightshade” value ([14]; 62 g ai/ha)?
A: Its value is 98.

Q: What about the “Plant response rating, Nightshade” value ([14]; 125 g ai/ha) of the same compound?
A: The value was 100.

Q: What about the “Plant response rating, Soybean” value (soybean (Glycine max); 16 g ai/ha) of the same compound?
A: The value was 0.

Q: What about the “Plant response rating, Soybean” value (soybean (Glycine max); 31 g ai/ha) of the same compound?
A: The value was 25.

Q: What about the “Plant response rating, Soybean” value (soybean (Glycine max); 62 g ai/ha) of the same compound?
A: Its value is 65.

Q: What about the “Plant response rating, Soybean” value (soybean (Glycine max); 125 g ai/ha) of the same compound?
A: Its value is 90.

Q: And the “Plant response rating, Velvetleaf” value ([15]; 16 g ai/ha)?
A: Its value is 80.

Q: And the “Plant response rating, Velvetleaf” value ([15]; 31 g ai/ha)?
A: The value was 70.

Q: What about the “Plant response rating, Velvetleaf” value ([15]; 62 g ai/ha) of the same compound?
A: The value was 100.

Q: And the “Plant response rating, Velvetleaf” value ([15]; 125 g ai/ha)?
A: The value was 100.

Q: And the “Plant response rating, Dayflower, VA” value ([16]; 16 g ai/ha)?
A: Its value is 0.

Q: And the “Plant response rating, Dayflower, VA” value ([16]; 31 g ai/ha)?
A: Its value is 0.

Q: What about the “Plant response rating, Dayflower, VA” value ([16]; 62 g ai/ha) of the same compound?
A: The value was 25.

Q: And the “Plant response rating, Dayflower, VA” value ([16]; 125 g ai/ha)?
A: The value was 95.

Q: And the “Plant response rating, Morningglory” value ([17]; 16 g ai/ha)?
A: Its value is 10.

Q: What about the “Plant response rating, Morningglory” value ([17]; 31 g ai/ha) of the same compound?
A: Its value is 50.

Q: What about the “Plant response rating, Morningglory” value ([17]; 62 g ai/ha) of the same compound?
A: Its value is 90.

Q: What about the “Plant response rating, Morningglory” value ([17]; 125 g ai/ha) of the same compound?
A: Its value is 80.

Q: And the “Plant response rating, Foxtail, Giant” value ([18]; 16 g ai/ha)?
A: The value was 5.

Q: And the “Plant response rating, Foxtail, Giant” value ([18]; 31 g ai/ha)?
A: The value was 90.

Q: What about the “Plant response rating, Foxtail, Giant” value ([18]; 62 g ai/ha) of the same compound?
A: The value was 100.

Q: What about the “Plant response rating, Foxtail, Giant” value ([18]; 125 g ai/ha) of the same compound?
A: Its value is 100.

Q: What about the “Plant response rating, Pigweed, Palmer” value ([19]; 16 g ai/ha) of the same compound?
A: The value was 0.

Q: And the “Plant response rating, Pigweed, Palmer” value ([19]; 31 g ai/ha)?
A: Its value is 60.

Q: What about the “Plant response rating, Pigweed, Palmer” value ([19]; 62 g ai/ha) of the same compound?
A: The value was 100.

Q: What about the “Plant response rating, Pigweed, Palmer” value ([19]; 125 g ai/ha) of the same compound?
A: The value was 100.
